{
  "source": "BindingDB's records for doi:10.1016/s0960-894x(02)00140-3",
  "about": "(Aventis Pharma, 2002)",
  "target": "Proto-oncogene tyrosine-protein kinase Src (Homo sapiens, UniProt P12931)",
  "sequence (P12931 2-536 limits assumed)": "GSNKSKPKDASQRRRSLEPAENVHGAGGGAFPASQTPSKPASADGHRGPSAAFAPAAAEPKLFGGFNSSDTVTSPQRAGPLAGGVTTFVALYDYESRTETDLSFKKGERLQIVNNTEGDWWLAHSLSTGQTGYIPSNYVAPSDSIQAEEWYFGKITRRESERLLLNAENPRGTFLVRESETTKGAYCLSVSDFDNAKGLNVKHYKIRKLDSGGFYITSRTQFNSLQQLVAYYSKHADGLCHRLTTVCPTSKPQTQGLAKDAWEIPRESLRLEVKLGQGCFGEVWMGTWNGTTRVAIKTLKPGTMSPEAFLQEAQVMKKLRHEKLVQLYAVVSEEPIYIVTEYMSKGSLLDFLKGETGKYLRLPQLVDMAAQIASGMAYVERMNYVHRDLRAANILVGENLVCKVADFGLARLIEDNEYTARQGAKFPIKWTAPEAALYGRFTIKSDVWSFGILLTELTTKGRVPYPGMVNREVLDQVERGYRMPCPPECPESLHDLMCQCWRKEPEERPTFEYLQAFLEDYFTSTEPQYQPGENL",
  "test": "ChEBML_202783",
  "protocol": "The compound was evaluated for its binding affinity towards phosphotyrosine binding pocket of Src protein tyrosine kinase SH2 domain",
  "data": [
    {"smiles": "O=P(O)(O)C(O)c1cccc2ccccc12", "note": "(stereo unspecified) [[hydroxy(naphthalen-1-yl)methyl]phosphonic acid]", "values": [
      {"measurement": "IC50", "result": "> 5", "unit": "mM"}
    ]}
  ]
}
